Entries after “also recorded” stand apart in the source; their conditions may differ.
How the values were obtained:
[1] = test system: calcium-activated Cl- channel; test: Perforated patch whole cell recording of Cl- current; type: cell-based, human
Method: In FIGS. 4A and 4B, the response to 10 μM INO-E2 is contrasted with the response to ATP.

human CF nasal epithelia = test: Blue Dextran volume transport assay (fluid absorption); type: cell-based
Description: In normal human airway epithelia, Na^+ and Cl^− currents (CFTR and Ca^2+-activated Cl^− currents) contribute to airway surface liquid (ASL) fluid volume regulation depending on signaling equilibria. In contrast, in human CF airway epithelia, Na^+ currents through ENaC dominate basal ASL volume regulation accompanied by a relatively minor contribution through Ca^2+-activated Cl^− currents. The combination of enhanced ENaC currents and transient Ca^2+-activated Cl^− currents in CF result in an inadequate hydration of the ASL and reduction of mucociliary clearance. Since INO-E2 reduces Na^+ transport through ENaC, we hypothesized that INO-E2 would have a functional effect, similar to amiloride, and inhibit fluid absorption. To test this hypothesis, we exposed well differentiated monolayer cultures of CF nasal epithelia to an apically applied buffer containing INO-E2 and a known concentration of the non-permeable molecule Blue Dextran (BD). The resulting reduction in the ability of these monolayers to concentrate BD was taken as a functional indicator of INO-E2's involvement in the inhibition of ENaC.
HEPES Modified Ringer's Buffer (HMRB) was used for these assays. HMRB was sterilized by positive pressure filtration through a 0.2 um syringe tip filter (Gelman acrodisc). The BD stock solution was aseptically prepared with sterile buffer (2 mg BD/ml buffer). Compounds to be tested were solubilized in sterile HMRB containing 1 μM BD (final concentration of vehicle is 0.1% (1:1, DMSO+DMSO containing 5% pluronic-F127). […] A standard concentration curve was obtained by determining the optical densities of a serial dilution of 10 μM Blue Dextran in HMRB placed in a Falcon 3027 96-well plate. The optical density of BD in the solution was obtained by analysis at 660 nm in a Packard Spectracount. Standards and samples were analyzed on the same plate. 50 μl volumes were used for all samples and standards. The [BD] of the samples was determined by extrapolation from the standard curve using the Packard I-Smart software. The increase in [BD] from the starting value of 1 μM was taken to be an indication of the magnitude of volume absorption occurring across the monolayer. The rate of absorption was calculated by dividing the change in volume by the duration of the experiment. This value was normalized to a surface area of 1 cm^2, to give μl·cm^2−1·hr^−1. To address evaporative loss, which would appear in the data as artificially high absorptive rates, dummy membranes were constructed by attaching a thin Sylgard sheet to snapwells/transwells with silicon sealant. These dummy membranes were used in parallel with the epithelial monolayers to assess evaporative loss for each experiment.

[2] = test system: Ca2+ activated Cl- secretion; test: ATP-stimulated Cl- secretion after amiloride in Ussing chambers; type: cell-based, human; settings: repeated exposure 1-2.5 μM over 96 hours, then amiloride, then apical ATP
Method: FIG. 3 is a graph showing the effect of repeated exposure to INO-E2 on physiological parameters in CFHNE. 2.5 μM INO-E2 was added every 24 hrs for 4 days. Effects on Isc in CFHNE, passage 2 are depicted. Every 24 hrs medium in the basolateral compartment was exchanged with fresh medium containing 2.5 μM INO-E2. On the 4th day the monolayers were mounted in Ussing chambers and basal Isc, conductance and resistance measured. After a stable baseline was reached, amiloride was added to determine the amiloride-inhibitable-Isc. Under these conditions, subsequent apical addition of the Ca^2+-mobilizing agent, ATP, allows Cl^− secretion to be examined in isolation.
The therapeutic potential of INO-E2 was investigated by using protocols that model in vivo treatments. In this experiment the effects of repeated exposure to a low dose of INO-E2 (2.5 μM) on basal Isc and responsiveness to calcium-mobilizing agonists (ATP) in human nasal CF epithelia (CFHNE) was tested. […] T here was no apparent difference in responses to compound added to the apical or basolateral compartment. This series of experiments provides information that useful for deriving the optimal therapeutic dose and delivery schedule for in vivo tests.

CCCCCCCCOC1C(OC(=O)CCC)C(OP(=O)(OCOC(=O)CC)OCOC(=O)CC)C(OP(=O)(OCOC(=O)CC)OCOC(=O)CC)C(OP(=O)(OCOC(=O)CC)OCOC(=O)CC)C1OP(=O)(OCOC(=O)CC)OCOC(=O)CC (stereo not shown) [INO-E2, 2-O-butyryl-1-O-octyl-myo-inositol 3,4,5,6-tetrakisphosphate octakis (propionoxymethyl) ester]
time to appearance of Cl- currents after addition ([1]; 10 μM, CFHNE cell, perforated patch): 5 to 15 min
increase in chloride current ([1]; 5 and 10 μM, other perforated patch recordings, data not shown): low to intermediate increase
change of potency on fluid absorption with repeat administration (human CF nasal epithelia; 2 hours each day for 8 days at 0.1 μM or 1 μM, n=6): enhancement of compound potency
potency compared with amiloride in fluid secretion assay (human CF nasal epithelia; comparison 100 μM amiloride): as potent as amiloride
duration of effects compared with amiloride (human CF nasal epithelia; conditions that model therapeutic exposure times): longer-lasting
duration of effect on fluid secretion following a brief (pulsed) exposure (human CF nasal epithelia; pulsed exposure, FIG. 17): prolonged effects
response to ATP (Ca2+ activated Cl- secretion) in treated monolayers [2]: augments subsequent stimulation of Ca^2+ activated Cl^− secretion; also recorded: elevated
